{"source": "patent US12377104B1", "about": "“Methods for treating a fatty liver disease” (Madrigal Pharmaceuticals, Inc., priority 2024, dated 2025)", "test": "MAESTRO-NASH: thyroid hormones at week 52", "format": "in vivo, human"}
{"smiles": "CC(C)c1cc(Oc2c(Cl)cc(-n3nc(C#N)c(=O)[nH]c3=O)cc2Cl)n[nH]c1=O", "note": "[Resmetirom, 2-(3,5-dichloro-4-((5-isopropyl-6-oxo-1,6-dihydropyridazin-3-yl)oxy)phenyl)-3,5-dioxo-2,3,4,5-tetrahydro-1,2,4-triazine-6-carbonitrile]", "values": [{"measurement": "TSH (not on thyroxine), LS mean difference from PBO (CFB)", "setting": "80 mg, Week 52", "value": "−0.15", "unit": "mIU/L"}, {"measurement": "TSH (thyroxine-treated), LS mean CFB", "setting": "80 mg, Week 52", "value": "−0.63", "unit": "mIU/L"}, {"measurement": "TSH (thyroxine-treated), LS mean difference from PBO (CFB)", "setting": "80 mg, Week 52", "value": "−0.41", "unit": "mIU/L"}, {"measurement": "TSH, LS mean CFB", "setting": "80 mg, Week 52", "value": "−0.28", "unit": "mIU/L"}, {"measurement": "TSH, LS mean difference from PBO (CFB)", "setting": "80 mg, Week 52", "value": "−0.18", "unit": "mIU/L"}, {"measurement": "rT3 (not on thyroxine), LS mean CFB", "setting": "80 mg, Week 52", "value": -4.5, "unit": "ng/dL"}, {"measurement": "rT3 (not on thyroxine), LS mean difference from PBO (CFB)", "setting": "80 mg, Week 52", "value": -4.5, "unit": "ng/dL"}, {"measurement": "rT3 (thyroxine-treated), LS mean CFB", "setting": "80 mg, Week 52", "value": -5.1, "unit": "ng/dL"}, {"measurement": "rT3 (thyroxine-treated), LS mean difference from PBO (CFB)", "setting": "80 mg, Week 52", "value": 5.1, "unit": "ng/dL"}, {"measurement": "rT3, LS mean CFB", "setting": "80 mg, Week 52", "value": -4.6, "unit": "ng/dL"}, {"measurement": "rT3, LS mean difference from PBO (CFB)", "setting": "80 mg, Week 52", "value": -4.73, "unit": "ng/dL"}, {"measurement": "rT3, LS mean CFB", "setting": "80 mg, week 52", "value": 4.6, "unit": "ng/dL"}, {"measurement": "rT3, LS mean CFB difference from PBO", "setting": "80 mg, week 52", "value": -4.7, "unit": "ng/dL"}, {"measurement": "FT3 (not on thyroxine), LS mean CFB", "setting": "100 mg, Week 52", "value": -0.08, "unit": "ng/L"}, {"measurement": "FT3 (not on thyroxine), LS mean difference from PBO (CFB)", "setting": "100 mg, Week 52", "value": -0.06, "unit": "ng/L"}, {"measurement": "FT3 (thyroxine-treated), LS mean CFB", "setting": "100 mg, Week 52", "value": -0.03, "unit": "ng/L"}, {"measurement": "FT3 (thyroxine-treated), LS mean difference from PBO (CFB)", "setting": "100 mg, Week 52", "value": 0.01, "unit": "ng/L"}, {"measurement": "FT3, LS mean CFB", "setting": "100 mg, Week 52", "value": 0.08, "unit": "ng/L"}, {"measurement": "FT3, LS mean difference from PBO (CFB)", "setting": "100 mg, Week 52", "value": -0.05, "unit": "ng/L"}, {"measurement": "FT3/rT3 (not on thyroxine), LS mean CFB", "setting": "100 mg, Week 52", "value": 0.06}, {"measurement": "FT3/rT3 (not on thyroxine), LS mean difference from PBO (CFB)", "setting": "100 mg, Week 52", "value": 0.07}, {"measurement": "FT3/rT3 (thyroxine-treated), LS mean CFB", "setting": "100 mg, Week 52", "value": 0.06}, {"measurement": "FT3/rT3 (thyroxine-treated), LS mean difference from PBO (CFB)", "setting": "100 mg, Week 52", "value": 0.06}, {"measurement": "FT3/rT3, LS mean difference from PBO (CFB)", "setting": "100 mg, Week 52", "value": 0.07}, {"measurement": "FT4 (not on thyroxine), LS mean % CFB", "setting": "100 mg, Week 52", "value": "−17.6", "unit": "%"}, {"measurement": "FT4 (not on thyroxine), LS mean CFB", "setting": "100 mg, Week 52", "value": -0.21, "unit": "ng/dL"}, {"measurement": "FT4 (not on thyroxine), LS mean difference from PBO (% CFB)", "setting": "100 mg, Week 52", "value": 20.0, "unit": "%"}, {"measurement": "FT4 (not on thyroxine), LS mean difference from PBO (CFB)", "setting": "100 mg, Week 52", "value": -0.23, "unit": "ng/dL"}, {"measurement": "FT4 (thyroxine-treated), LS mean % CFB", "setting": "100 mg, Week 52", "value": 20.6, "unit": "%"}, {"measurement": "FT4 (thyroxine-treated), LS mean CFB", "setting": "100 mg, Week 52", "value": -0.26, "unit": "ng/dL"}, {"measurement": "FT4 (thyroxine-treated), LS mean difference from PBO (% CFB)", "setting": "100 mg, Week 52", "value": "−24.4", "unit": "%"}, {"measurement": "FT4 (thyroxine-treated), LS mean difference from PBO (CFB)", "setting": "100 mg, Week 52", "value": 0.29, "unit": "ng/dL"}, {"measurement": "FT4, LS mean % CFB", "setting": "100 mg, Week 52", "value": "−18.1", "unit": "%"}, {"measurement": "FT4, LS mean CFB", "setting": "100 mg, Week 52", "value": -0.22, "unit": "ng/dL"}, {"measurement": "FT4, LS mean difference from PBO (% CFB)", "setting": "100 mg, Week 52", "value": 20.7, "unit": "%"}, {"measurement": "FT4, LS mean difference from PBO (CFB)", "setting": "100 mg, Week 52", "value": -0.24, "unit": "ng/dL"}, {"measurement": "TBG (not on thyroxine), LS mean CFB", "setting": "100 mg, Week 52", "value": 0.21, "unit": "mg/L"}, {"measurement": "TBG (not on thyroxine), LS mean difference from PBO (CFB)", "setting": "100 mg, Week 52", "value": 1.8, "unit": "mg/L"}, {"measurement": "TBG (thyroxine-treated), LS mean CFB", "setting": "100 mg, Week 52", "value": 3.1, "unit": "mg/L"}, {"measurement": "TBG (thyroxine-treated), LS mean difference from PBO (CFB)", "setting": "100 mg, Week 52", "value": 4.6, "unit": "mg/L"}, {"measurement": "TBG, LS mean CFB", "setting": "100 mg, Week 52", "value": -0.60, "unit": "mg/L"}, {"measurement": "TBG, LS mean difference from PBO (CFB)", "setting": "100 mg, Week 52", "value": -2.2, "unit": "mg/L"}, {"measurement": "TSH (not on thyroxine), LS mean CFB", "setting": "100 mg, Week 52", "value": "−0.20", "unit": "mIU/L"}, {"measurement": "TSH (not on thyroxine), LS mean difference from PBO (CFB)", "setting": "100 mg, Week 52", "value": "−0.12", "unit": "mIU/L"}, {"measurement": "TSH (thyroxine-treated), LS mean CFB", "setting": "100 mg, Week 52", "value": "−0.13", "unit": "mIU/L"}, {"measurement": "TSH (thyroxine-treated), LS mean difference from PBO (CFB)", "setting": "100 mg, Week 52", "value": 0.09, "unit": "mIU/L"}, {"measurement": "TSH, LS mean CFB", "setting": "100 mg, Week 52", "value": "−0.20", "unit": "mIU/L"}, {"measurement": "TSH, LS mean difference from PBO (CFB)", "setting": "100 mg, Week 52", "value": 0.10, "unit": "mIU/L"}, {"measurement": "rT3 (not on thyroxine), LS mean CFB", "setting": "100 mg, Week 52", "value": 4.9, "unit": "ng/dL"}, {"measurement": "rT3 (not on thyroxine), LS mean difference from PBO (CFB)", "setting": "100 mg, Week 52", "value": -5.1, "unit": "ng/dL"}, {"measurement": "rT3 (thyroxine-treated), LS mean CFB", "setting": "100 mg, Week 52", "value": -6.3, "unit": "ng/dL"}, {"measurement": "rT3 (thyroxine-treated), LS mean difference from PBO (CFB)", "setting": "100 mg, Week 52", "value": -6.3, "unit": "ng/dL"}, {"measurement": "rT3, LS mean CFB", "setting": "100 mg, Week 52", "value": 5.1, "unit": "ng/dL"}, {"measurement": "rT3, LS mean difference from PBO (CFB)", "setting": "100 mg, Week 52", "value": -5.2, "unit": "ng/dL"}, {"measurement": "rT3, LS mean CFB", "setting": "100 mg, week 52", "value": 5.1, "unit": "ng/dL"}, {"measurement": "rT3, LS mean CFB difference from PBO", "setting": "100 mg, week 52", "value": 5.2, "unit": "ng/dL"}, {"measurement": "effect on levels of thyrotropin or free triiodothyronine (FT3)", "setting": "in vivo", "value": "no effect"}, {"measurement": "reduction of prohormone free T4 (FT4) levels", "setting": "independent of thyroxine-replacement status", "value": "16 to 19", "unit": "%"}]}
